Results taken from publication PMC5813964, “The enzymatic processing of α-dystroglycan by MMP-2 is controlled by two anchoring sites distinct from the active site” (PLoS ONE, 2018).
No end group written: not given here.

How the values were obtained:
whole MMP-2 = molecular target: T1, whole MMP-2 (Homo sapiens, UniProt P08253); assay: MMP-2 proteolysis of fluorogenic peptide, modulation by α-DG C-term peptide; type: biochemical; conditions: global fit Eqs 1-3
T1 construct: purchased R&D System, London, UK
T1 sequence (P08253 110-660): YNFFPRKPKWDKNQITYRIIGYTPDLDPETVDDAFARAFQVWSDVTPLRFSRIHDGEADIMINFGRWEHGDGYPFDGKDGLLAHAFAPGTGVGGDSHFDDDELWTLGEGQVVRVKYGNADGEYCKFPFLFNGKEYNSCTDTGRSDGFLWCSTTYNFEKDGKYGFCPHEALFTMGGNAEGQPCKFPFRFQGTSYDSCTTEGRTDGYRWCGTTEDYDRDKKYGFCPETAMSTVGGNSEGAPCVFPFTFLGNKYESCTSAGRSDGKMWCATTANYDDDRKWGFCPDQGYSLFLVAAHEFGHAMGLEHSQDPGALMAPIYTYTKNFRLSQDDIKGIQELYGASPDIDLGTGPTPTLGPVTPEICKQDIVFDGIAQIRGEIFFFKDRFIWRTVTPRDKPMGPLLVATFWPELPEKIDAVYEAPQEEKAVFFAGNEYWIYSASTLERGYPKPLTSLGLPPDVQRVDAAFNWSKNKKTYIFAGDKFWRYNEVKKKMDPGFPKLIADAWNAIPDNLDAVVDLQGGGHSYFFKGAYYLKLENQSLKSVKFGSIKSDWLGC
Experimental: (§1) Human MMP-2 proenzyme 2 was activated by incubating 0.1 mg/ml progelatinase solution with 0.25 mM aminophenyl mercuric acid (Sigma, St. Louis, MO, USA) at 37°C for 30 minutes. Whereas human recombinant cdMMP-2 human was dissolved in a solution of 50 mM Tris/HCl (pH 7.2), 0.1M NaCl and 10 mMCaCl. […] All measurements were performed at 37°C using a solution of 50 mM Tris–HCl, 0.1 M NaCl, 10 mM CaCl2 and 0.05% Brij 35 buffered at pH 7.3.
(§2) Different concentrations of the α-DG peptide (i.e., final concentration range spanning between 0 μM and 4 μM) were incubated with 0.07 μM active MMP-2 for 30 min at 37°C to allow the interaction to occur. In the case of the cdMMP2 the kinetics were performed employing 0.06 μM cdMMP-2 at different concentration of α-DG (613–651) peptide in the range 0–2 μM. Different concentrations of MCA fluorogenic peptide (i.e: from […]) were then added to this solution. The enzymatic reaction was recorded for 30 minutes at 37°C. The initial velocities were derived from the slopes within the first 15 minutes, which is the time period during which the rate is constant and less than 10% of the substrate was degraded. This ensured a steady-state condition for the first cleavage step, and it was a prerequisite for the subsequent analysis steps.
(§3) This behavior, which envisages the presence of (at least) two binding sites for the α-DG (613–651) peptide on the catalytic domain of MMP-2, can be kinetically and thermodynamically described by the scheme reported on Fig 5; where, ^0kcat and ^0Km are the observed catalytic parameters in the absence of the peptide, Ka and Kb are the peptide dissociation constants to the free enzyme for the two binding sites, α is the interaction parameter, which quantifies the effect on Km of the α-DG(613–651) peptide binding to the first binding site (α > 1 indicates a negative effect with a decreased affinity, α < 1 a positive effect and α = 1 no effect), β is the interaction parameter which estimates the effect on kcat of the binding of α-DG(613–651) peptide to the first binding site (β > 1 indicates a positive effect with an increased rate constant, β < 1 a negative effect and β = 1 no effect).
(§4) Data reported in Figs 4 and 5 have been analyzed according to the following equation: [E0]/v=^obsKm/^obskcat⋅1/[S]+1/^obskcat (Eq 1) where [E0] is the total enzyme concentration, ν is the observed velocity (expressed as mol/s), [S] is the substrate concentration, ^obskcat and ^obsKm are the observed catalytic parameters, namely ^obskcat=^0kcat⋅(Ka⋅α+β⋅[Pept])/(Ka⋅α+[Pept]) (Eq 2) and ^obsKm=^0Km⋅α⋅(Ka⋅Kb+Kb⋅[Pept]+[Pept]^2)/Kb⋅(Ka⋅α+[Pept]) (Eq 3) where ^0kcat and ^0Km are the catalytic paramenters in the absence of peptide and all other symbols have the same meaning as described above.

[1] = molecular target: T2, cdMMP-2 (isolated catalytic domain of MMP-2) (Homo sapiens, UniProt P08253); assay: cdMMP-2 proteolysis of fluorogenic peptide, modulation by α-DG C-term peptide; type: biochemical; conditions: pH 7.3, 37°C, global fit Eqs 1-3
T2 construct: the catalytic domain of MMP-2 (without the hemopexin-like domain) retains the capability of degrading; purchased Biomol International
Experimental: as §1, §2, §3, §4

[2] = molecular target: human recombinant MMP-2 (whole enzyme, activated) (human)
[3] = molecular target: human recombinant catalytic domain of MMP-2 (cdMMP-2) (human)
[4] = molecular target: human recombinant MMP-2 (whole enzyme, activated) (human); assay: enzyme inhibition kinetics (fluorogenic substrate); peptide (0-4 μM with 0.07 μM active MMP-2; 0-2 μM with 0.06 μM cdMMP-2) incubated with the enzyme 30 min at 37°C, then MCA-Pro-Leu-Gly-Leu-DPA-Ala-Arg-NH2 added; initial velocities, global fit of Lineweaver-Burk data to a scheme with two peptide binding sites (Eqs 1-3); 50 mM Tris-HCl, 0.1 M NaCl, 10 mM CaCl2, 0.05% Brij 35, pH 7.3, 37°C
[5] = molecular target: human recombinant catalytic domain of MMP-2 (cdMMP-2) (human); assay: as above

Molecule: VGDPALVLNDIHKKIALVKKLAFAFGDRNCSTITLQNIT [α-DG (613–651) peptide]
- Kd (whole MMP-2; whole MMP-2, fluorogenic substrate, peptide 0-4 μM, 30 min preincubation at 37°C, pH 7.3, read-out: Ka (peptide dissociation constant to the free enzyme, first, high affinity non-competitive site)): 35 nM
- Kb (whole MMP-2; whole MMP-2, fluorogenic substrate, peptide 0-4 μM, 30 min preincubation at 37°C, pH 7.3, read-out: Kb (peptide dissociation constant to the free enzyme, second, lower affinity competitive active site)): 210 nM
- Kd ([1]; cd-MMP-2, fluorogenic substrate, peptide 0–2 μM, read-out: Ka (peptide dissociation constant to the free enzyme, first, high affinity non-competitive site)): 35 nM
- Kb ([1]; cd-MMP-2, fluorogenic substrate, peptide 0–2 μM, read-out: Kb (peptide dissociation constant to the free enzyme, second, lower affinity competitive active site)): 210 nM

Molecule: MCA-Pro-Leu-Gly-Leu-DPA-Ala-Arg-NH2 [fluorogenic substrate, reference compound]
- ^0kcat (whole MMP-2; whole MMP-2, absence of peptide, MCA-Pro-Leu-Gly-Leu-DPA-Ala-Arg-NH2 substrate, pH 7.3, 37°C, 50 mM Tris–HCl, 0.1 M NaCl, 10 mM CaCl2, 0.05% Brij 35, λexc 325 nm, λem 398 nm): 29.6 ± 4.5 s⁻¹
- ^0Km (whole MMP-2; whole MMP-2, absence of peptide, pH 7.3, 37°C): 1.5(±0.3)×10^−6 M
- ^0Km ([1]; cd-MMP-2, absence of peptide): 1.9(±0.5)×10^−6 M
- ^0kcat ([1]; cd-MMP-2, absence of peptide): 26.1 ± 4.1 s⁻¹

Molecule: VGDPALVLNDIHKKIALVKKLAFAFGDRNCSTITLQNIT [human α-DG (613–651) peptide]
- interaction parameter α (effect of peptide at the first site on Km of the fluorogenic substrate) [2]: 1.7
- interaction parameter β (effect of peptide at the first site on kcat for the fluorogenic substrate) [2]: 0.27
- interaction parameter β (effect of peptide at the first site on kcat for the fluorogenic substrate) [3]: 0.32
- Ka (dissociation constant, first site, higher affinity, non-competitive) [4]: 35 nM
- Kb (dissociation constant, second site, lower affinity, competitive) [4]: 210 nM
- Ka (dissociation constant, first site, higher affinity, non-competitive) [5]: 35 nM
- Kb (dissociation constant, second site, lower affinity, competitive) [5]: 210 nM
